From patent US20190262457A1, “NOVEL ALKYLATING AGENT” (CHIBA-PREFECTURE, priority 2016, published 2019)

Experiments:
[1] = test system: subcutaneously transplanted RKO tumor; test: Tumor volume in RKO-transplanted humanized NSG mice; assay type: in vivo; details: humanized NSG mouse
Description: (§1) 1×10^7 cells of human PBMC (Precision Bioservices Inc.) were intravenously transplanted to each NSG mouse (NOD.Cg-Prkdc^scidI/2rg^tm1Wj1/SzJ; Charles River Laboratories Japan, Inc.) to prepare a humanized NSG mouse. One week after the PBMC transplantation, 1×10^7 RKO cells (ATCC) were subcutaneously transplanted to each humanized NSG mouse. After the transplantation, CCC07-01 was intravenously administered at 2.3 or 9.2 mg/kg to the mouse when tumorigenesis was able to be confirmed. The tumor size was measured over time, and the tumor volume (mm^3) was calculated according to the expression: Tumor volume=[…]. One week after the CCC07-01 administration, the spleen was harvested and homogenized in 2% FBS/PBS to prepare a cell suspension. The spleen cells were stained with a fluorescently labeled anti-human CD4 antibody, anti-human CD8 antibody and anti-human Foxp3 antibody and analyzed for the numbers of cytotoxic T cells (CD8-positive cells) and regulatory T cells (Treg: CD4-positive and Foxp3-positive cells) using a flow cytometer. Statistical processing was performed by the Mann-Whitney U test, and the significance level was set to P<0.05.

RKO cells [2] = test: Cytotoxicity and IC50 comparison with CBI by WST assay, 48 hours; assay type: cell-based, human; details: WST-8
Description: (§2) From the cell lines mentioned above, a large intestine cancer cell line SW480 was used as cells expressing PD-1, and a large intestine cancer cell line RKO was used as cells expressing PD-L1. An experiment was conducted to compare toxicity and IC50 between the PIP-drug conjugate compound CCC07-01 and the alkylating agent CBI used as a drug conjugate therein. The cells of each line were inoculated at 3000 cells/well to a 96-well microplate and cultured overnight. On the next day, the cells were treated with the PIP-CBI conjugate (CCC07-01) or CBI having a concentration of 0.1, 1, 10, 30, 100, 300, or 1000 nM (1 μM) for 48 hours. Then, WST-8 reagent was added to each well using Cell counting kit-8, and the mixture was reacted for 2 hours. Then, the cell count was calculated at a wavelength of 450 nm by the colorimetric analysis method using a microplate reader. The method for calculating the cell count involved: 1) obtaining the mean value of a medium alone, 2) subtracting the mean value of the medium from each well, 3) obtaining the mean value of DMSO, 4) dividing the medium mean value-subtracted value by the mean value of DMSO and then multiplying by 100, and 5) obtaining the mean value of each treatment group and a standard deviation, and preparing a graph. IC50 was calculated according to the following expression: IC50=10(LOG(A/B)×(50−C)/(D−C)+LOG(B) wherein A: a higher concentration of two concentrations sandwiching 50%, B: a lower concentration of two concentrations sandwiching 50%, C: the rate of inhibition at B, and D: the rate of inhibition at A.

SW480 cells [3] = test: as above; assay type: cell-based, human; details: WST-8
Description: as §2

PD-1 gene = test: Experiment to silence PD-1 gene (RT-PCR / real-time PCR); assay type: cell-based, human; details: SW480 cells, 100 nM, 6 hours
Description: SW480 cells were cultured in a 6-well plate. On the next day, the cells were treated with 0, 1, 10, or 100 nM CCC07-01 for 6 hours. The cells were collected, and total RNA was extracted therefrom. The extraction employed RNeasy Plus Mini Kit (Qiagen N.V., CA). Next, cDNA was prepared by reverse transcription with the extracted RNA as a template according to Super Script VILO cDNA Synthesis kit (Invitrogen Corp., CA). RT-PCR was performed with the cDNA as a template under the following conditions: the conditions for PD-1 involved denaturation at 95° C. and then 33 cycles each involving 95° C. for 30 seconds, 56° C. for 30 seconds, and 72° C. for 30 seconds, followed by elongation reaction at 72° C. for 5 minutes. For a control, RT-PCR of GAPDH was performed using the same cDNA as above. The conditions for GAPDH involved denaturation at 95° C. and then 22 cycles each involving 95° C. for 30 seconds, 55° C. for 30 seconds, and 72° C. for 30 seconds, followed by elongation reaction at 72° C. for 5 minutes.
Each RT-PCR product was electrophoresed on 2% agarose and stained with ethidium bromide. qPCR was further performed. […] A relative expression level was quantified with GAPDH as a control.

RKO cells [4] = test: Cytotoxicity test by WST assay, IC50 24 hours after administration; assay type: cell-based, human; details: WST-8
Description: (§3) From the cell lines mentioned above, a large intestine cancer cell line SW480 was used as cells expressing PD-1, a large intestine cancer cell line RKO was used as cells expressing PD-L1, and a malignant melanoma cell line A2058 and a pancreatic cancer cell line MIA PaCa-2 were used as cells expressing CTLA-4. The cells of each line were inoculated at 3000 cells/well to a 96-well microplate and cultured overnight. On the next day, the cells were treated with CCC07-01 having a concentration of 0.1, 1, 10, 30, 100, 300, or 1000 nM (1 μM) for 24 hours. Then, WST-8 reagent was added to each well using Cell counting kit-8, and the mixture was reacted for 2 hours. Then, the cell count was calculated at a wavelength of 450 nm by the colorimetric analysis method using a microplate reader. The method for calculating the cell count involved: 1) obtaining the mean value of a medium alone, 2) subtracting the mean value of the medium from each well, 3) obtaining the mean value of DMSO, 4) dividing the medium mean value-subtracted value by the mean value of DMSO and then multiplying by 100, and 5) obtaining the mean value of each treatment group and a standard deviation, and preparing a graph. IC50 was calculated according to the following expression: IC50=10(LOG(A/B)×(50−C)/(D−C)+LOG(B) wherein A: a higher concentration of two concentrations sandwiching 50%, B: a lower concentration of two concentrations sandwiching 50%, C: the rate of inhibition at B, and D: the rate of inhibition at A.
(§4) The cells used in the experiment were RKO (large intestine cancer), SW480 (large intestine cancer), A2058 (malignant melanoma), and MIA PaCa-2 (pancreatic cancer).

MIA PaCa-2 cells = test: as above; assay type: cell-based, human; details: MIA-PaCa2 cells, WST-8
Description: as §3, §4

SW480 cells [5] = test: as above; assay type: cell-based, human; details: WST-8
Description: as §3, §4

A2058 cells = test: as above; assay type: cell-based, human; details: WST-8
Description: as §3, §4

[6] = test system: cytotoxic T cells (CD8-positive cells) and regulatory T cells (Treg); test: Ratio of cytotoxic T cells to Treg in the spleen of RKO-transplanted humanized NSG mice (flow cytometer); assay type: in vivo, mouse; details: one week after administration
Description: as §1

## CC(=O)Nc1cn(C)c(C(=O)Nc2cc(C(=O)Nc3cn(C)c(C(=O)Nc4cn(C)c(C(=O)NCCC(=O)Nc5cc(C(=O)Nc6cc(C(=O)NCCCC(=O)Nc7cc(C(=O)Nc8cn(C)c(C(=O)NCCC(=O)Nc9cc(C(=O)Nc%10cc(C(=O)Nc%11ccc%12[nH]c(C(=O)N%13CC(CCl)c%14c%13cc(O)c%13ccccc%14%13)cc%12c%11)n(C)c%10)n(C)c9)n8)n(C)c7)n(C)c6)n(C)c5)n4)n3)n(C)c2)n1 (centres unmarked) [CCC07-01]
[1]; 2.3 mg/kg intravenous
  T/C ratio: 56.0%
[1]; 9.2 mg/kg intravenous
  T/C ratio: 41.5%
RKO cells [2]
  IC50: 4 nM
SW480 cells [3]
  IC50: 11 nM
PD-1 gene
  expression of PD-1: markedly decreased
RKO cells [4]
  IC50: 12 nM
MIA PaCa-2 cells
  IC50: 189 nM
SW480 cells [5]
  IC50: 27 nM
A2058 cells
  IC50: 11 nM
[6]; 2.3 mg/kg intravenous
  CD8-positive cell/Treg ratio in the spleen: 116.5
[6]; 9.2 mg/kg intravenous
  CD8-positive cell/Treg ratio in the spleen: 323.2
